Values of other authors, collected in patent publication US8633167B2, “Method for the protection of trees” (Syngenta Crop Protection LLC, priority 2006, dated 2014).

Columns and labels:
SPB [1] = details: applied to foliage at two different rates; cited from earlier work
SPB [2] = details: applied by Mauget Injectors; cited from earlier work

In the case of `COP(=O)(NC(C)=O)SC` (stereo not shown) [acephate], the SPB larval survival (SPB [1]) is listed as “reduce” and the “effect on eggs, pupae, callow or parent adults” value (SPB [1]) is listed as “no effect”.
For `COP(=O)(OC)O/C(C)=C/C(=O)N(C)C` [dicrotophos], the egg gallery length (SPB [2]) is given as “significantly reduce” and the subsequent brood production (SPB [2]) is given as “significantly reduce”.
